{"source": "paper PMC9099121", "about": "“Population pharmacokinetic and exposure‐response analyses from ALTA‐1L: Model‐based analyses supporting the brigatinib dose in ALK‐positive NSCLC” (Clinical and Translational Science, 2022)", "key": {"[1]": {"experiment": "Population PK model post hoc estimates, ALTA (second-line)", "type": "in vivo, human", "conditions": "geometric mean (5th and 95th percentiles); ALTA n = 201", "from_the_text": "The previously developed population PK model[11] was used for population PK analyses of ALTA‐1L data. The previous analysis provided a robust and comprehensive characterization of brigatinib PK and sources of variability. Importantly, the previous analysis included 202 patients with ALK+ NSCLC that progressed on other ALK TKIs, representing a similar patient population to patients receiving first‐line brigatinib in ALTA‐1L. These considerations supported a Bayesian re‐estimation approach for deriving individual brigatinib PK parameters in ALTA‐1L using the previously reported model, and the model was applied without modification. In brief, the population PK model described brigatinib PK using a three‐compartment model with linear distribution and elimination kinetics and first‐order absorption preceded by a set of transit compartments.[11] The model included albumin concentration as a covariate on apparent oral clearance (CL/F). Bayesian re‐estimation was performed by setting initial model conditions to values of fixed effects and random effect variances previously estimated,[11] allowing for estimation of individual PK parameters based on the PK observations in the ALTA‐1L dataset.\nDiagnostic plots were created to compare brigatinib PK in patients in ALTA‐1L (first‐line setting) and ALTA (second‐line setting). […] In exploratory analyses, relationships between covariates of interest and model‐based exposure estimates were evaluated using linear regression models with each covariate as a predictor."}, "[2]": {"system": "ALK+ NSCLC", "experiment": "Exposure-PFS analysis (Kaplan-Meier, Cox PH models), ALTA-1L", "type": "in vivo, human", "procedure": "First, the relationship between PFS and two static exposure metrics, time‐averaged AUC between the last two disease assessment scans preceding progression or censoring and time‐averaged AUC until progression, was evaluated. These exposure‐PFS relationships were characterized by a proportional hazard (PH) model relating exposure to the hazard of PFS. The hazard function was expressed as: (1) λt=λ0te^β^TXi where λ 0 (t) is the baseline hazard function and Xi is a vector of predictor variables for an individual patient. The parameter vector β was estimated by maximum partial likelihood and captures the effect of exposure and/or additional covariates on the hazard of disease progression.\nNext, the relationship between PFS and two dynamic exposure metrics, daily time‐varying AUC between the last two disease assessment scans preceding progression or censoring and daily time‐varying AUC until progression, was evaluated. These analyses used a time‐dependent covariate Cox PH model relating time‐dependent exposure to PFS. The hazard function was expressed as: (2) λt=λ0te^β1×AUCDt+β^TXi where model parameters were as above in Equation 1, except that exposure (AUCDt ) was a time‐dependent predictor rather than a constant for each patient.\nFor each static exposure‐PFS analysis, Kaplan‐Meier (KM) plots of PFS probability over time were generated and stratified by brigatinib exposure quartiles. Crizotinib PFS curves were overlaid for comparison.\nDynamic daily time-averaged AUC between successive disease assessment scans preceding the event or censoring for PFS, obtained as the average of daily AUCs within each scan interval.\nTime averaged AUC until PFS= Cumulative dose to progressionOral brigatinib clearance/ (days to progression)"}, "[3]": {"system": "ALK+ NSCLC", "experiment": "Exposure-ORR/iORR logistic regression, ALTA-1L", "type": "in vivo, human", "from_the_text": "The exposure‐efficacy analyses related reported efficacy outcomes (blinded IRC [BIRC]‐assessed PFS, ORR, and iORR) to individual brigatinib exposures predicted using individual estimated PK parameters from the population PK model. Model‐based estimates of CL/F and actual dosing history were used to derive exposure metrics of interest. Several exposure metrics were considered, including both static and dynamic area under the concentration‐time curve (AUC) estimates (Methods S1).\nFor ORR and iORR, each patient was classified as a responder (i.e., achieving confirmed complete or partial systemic ORR or iORR response) or a nonresponder. Relationships between ORR and iORR and brigatinib exposure were analyzed using two static exposure metrics: time‐averaged AUC between the last two disease assessment scans preceding best confirmed response and time‐averaged AUC until best confirmed response (ORR or iORR). Exposure–clinical response relationships were characterized by logistic regression models. Predicted logistic regression curve and observed response rate in each brigatinib exposure quartile or tertile (along with associated 95% CIs) were plotted.\nTime averaged AUC until best confirmed response (ORR or iORR)= Cumulative dose to best confirmed systemic ORR or intracranial iORR responseOral brigatinib clearance/ (days to best confirmed systemic or intracranial response)\nStatic metrics of time-averaged exposure between the last two disease assessment scans preceding PFS, ORR, or iORR, or censoring (refer to 2)"}, "[4]": {"experiment": "Exposure-safety analysis and AE incidence, ALTA-1L", "type": "in vivo, human", "from_the_text": "[…] AEs of interest selected for analysis included eight grade two or higher AEs (increased alanine aminotransferase [ALT], AST, or amylase; hyperglycemia; hypertension; bradycardia; rash; and pulmonary events [pneumonitis or ILD]), five grade three or higher AEs (increased CPK, AST, ALT, amylase, and lipase), and a composite grade three or higher AE end point that included grade three or higher CPK, AST, ALT, amylase, or lipase elevations; hyperglycemia; hypertension; bradycardia; rash; and pulmonary events.\nAEs were included in the analysis if they occurred any time between the first day of brigatinib dosing and 30 days after the last dose. AEs were defined according to the National Cancer Institute Common Toxicity Criteria for Adverse Events version 4.03. The relationship between time‐averaged exposure and AE probability was examined using the same logistic regression models described for the exposure–clinical response analyses. Probability of an AE was plotted against exposure, with observed probabilities calculated by exposure quartiles.\nThe relationship between brigatinib exposure and time to first brigatinib dose reduction was also explored. A KM plot of time to first brigatinib dose reduction was generated, with survival curves binned by brigatinib exposure quartiles, where exposure was defined as the time‐averaged AUC to the first occurrence of dose reduction."}, "[5]": {"system": "advanced ALK inhibitor-naive ALK+ NSCLC", "conditions": "cited from earlier work"}}}
{"molecule": "COc1cc(N2CCC(N3CCN(C)CC3)CC2)ccc1Nc1ncc(Cl)c(Nc2ccccc2P(C)(C)=O)n1", "note": "[brigatinib]", "values": [{"measurement": "Albumin covariate effect on CL/F", "setting": "[1]", "value": "0.939 (0.758, 1.09)"}, {"measurement": "CL/F", "setting": "[1]", "value": "9.90 (4.06, 23.0) L/h"}, {"measurement": "Mean transit time", "setting": "[1]", "value": "0.998 (0.584, 1.92) h"}, {"measurement": "Q2/F", "setting": "[1]", "value": "12.6 (12.6, 12.6) L/h"}, {"measurement": "Q3/F", "setting": "[1]", "value": "2.67 (2.67, 2.67) L/h"}, {"measurement": "V1/F", "setting": "[1]", "value": "199 (86.0, 468) L"}, {"measurement": "V2/F", "setting": "[1]", "value": "124 (78.3, 259) L"}, {"measurement": "V3/F", "setting": "[1]", "value": "78.5 (78.5, 78.5) L"}, {"measurement": "Cox PH ratio for PFS versus exposure", "setting": "[2]; dynamic metric: daily time-averaged AUC between successive disease assessments preceding PFS event or censoring, p = 0.08", "value": 1.02}, {"measurement": "Cox PH ratio for PFS versus exposure", "setting": "[2]; dynamic metric: daily time-varying AUC preceding progression or censoring, p = 0.69", "value": "1.01 [0.98–1.03]"}, {"measurement": "HR [95% CI] of disease progression or death per one-unit increase in exposure (Cox PH model)", "setting": "[2]; static metric: time-averaged AUC between the last two disease assessments, p = 0.01", "value": "1.03 [1.01–1.05]"}, {"measurement": "Estimated probability of iORR", "setting": "[3]; 5th exposure percentile following 180 mg dosing", "value": 0.58}, {"measurement": "Estimated probability of iORR", "setting": "[3]; 50th (median) exposure percentile following 180 mg dosing", "value": 0.83}, {"measurement": "Estimated probability of iORR", "setting": "[3]; 50th (median) exposure percentile following 180 mg dosing, listed as Brigatinib", "value": "0.83 (0.58–0.99)"}, {"measurement": "Estimated probability of iORR", "setting": "[3]; 95th exposure percentile following 180 mg dosing", "value": 0.99}, {"measurement": "Odds ratio for probability of achieving iORR versus exposure", "setting": "[3]; time-averaged AUC between the last two disease assessments preceding best confirmed intracranial response, 95% CI: 1.01–1.28, p = 0.049, n = 42", "value": 1.13}, {"measurement": "Odds ratio for probability of achieving ORR versus exposure", "setting": "[3]; time-averaged AUC between the last two disease assessments preceding best confirmed objective response, 95% CI: 0.93–1.01, p = 0.108", "value": 0.97}, {"measurement": "Odds ratio for probability of achieving ORR versus exposure", "setting": "[3]; time-averaged AUC until the first best confirmed response, p = 0.13", "value": "0.97 [0.94–1.01]"}, {"measurement": "Odds ratio for probability of iORR versus exposure", "setting": "[3]; time-averaged AUC until the first best confirmed response, p = 0.15", "value": "1.09 [0.98–1.23]"}, {"measurement": "Incidence of ALT increase, Grade ≥2", "setting": "[4]; n = 123", "value": "18 (14.6) n (%)"}, {"measurement": "Incidence of ALT increase, Grade ≥3", "setting": "[4]; n = 123", "value": "6 (4.9) n (%)"}, {"measurement": "Incidence of AST increase, Grade ≥2", "setting": "[4]; n = 123", "value": "10 (8.1) n (%)"}, {"measurement": "Incidence of AST increase, Grade ≥3", "setting": "[4]; n = 123", "value": "5 (4.1) n (%)"}, {"measurement": "Incidence of Amylase increase, Grade ≥2", "setting": "[4]; n = 123", "value": "24 (19.5) n (%)"}, {"measurement": "Incidence of Amylase increase, Grade ≥3", "setting": "[4]; n = 123", "value": "10 (8.1) n (%)"}, {"measurement": "Incidence of Bradycardia, Grade ≥2", "setting": "[4]; n = 123", "value": "2 (1.6) n (%)"}, {"measurement": "Incidence of CPK increase, Grade ≥3", "setting": "[4]; n = 123", "value": "32 (26.0) n (%)"}, {"measurement": "Incidence of Hyperglycemia, Grade ≥2", "setting": "[4]; n = 123", "value": "2 (1.6) n (%)"}, {"measurement": "Incidence of Hypertension, Grade ≥2", "setting": "[4]; n = 123", "value": "38 (30.9) n (%)"}, {"measurement": "Incidence of Lipase increase, Grade ≥3", "setting": "[4]; n = 123", "value": "22 (17.9) n (%)"}, {"measurement": "Incidence of Pulmonary AEs (pneumonitis and interstitial lung disease), Grade ≥2", "setting": "[4]; n = 123", "value": "2 (1.6) n (%)"}, {"measurement": "Incidence of Rash, Grade ≥2", "setting": "[4]; n = 123", "value": "15 (12.2) n (%)"}, {"measurement": "Incidence of Any AE, Grade ≥3", "setting": "[4]; n = 123, composite of CPK, AST, ALT, amylase, lipase, hyperglycemia, hypertension, bradycardia, rash, pulmonary events", "value": "64 (52.0) n (%)"}, {"measurement": "Odds ratio, grade ≥3 lipase increase per 1 µg·h/mL/day increase in exposure", "setting": "[4]; time-averaged AUC across days 8 to 14 of cycle one, 95% CI: 1.00–1.10, p = 0.039", "value": 1.05}, {"measurement": "Odds ratio, grade ≥2 amylase increase per 1 µg·h/mL/day increase in exposure", "setting": "[4]; time-averaged AUC across days 8 to 14 of cycle one, 95% CI: 1.01–1.11, p = 0.016", "value": 1.06}, {"measurement": "Estimated odds ratio, grade ≥3 lipase increase versus exposure", "setting": "[4]; time-averaged AUC to first occurrence of an event, 95% CI: 0.99–1.07, p = 0.146", "value": 1.03}, {"measurement": "Estimated odds ratio, grade ≥2 amylase increase versus exposure", "setting": "[4]; time-averaged AUC to first occurrence of an event, p = 0.094", "value": "1.04 [0.99–1.09]"}, {"measurement": "Effect of exposure on time to first brigatinib dose reduction (KM plots by exposure quartiles)", "setting": "[4]; time-averaged AUC to the first occurrence of dose reduction", "value": "did not show a discernible effect"}, {"measurement": "Hazard ratio versus crizotinib (superiority, PFS)", "setting": "[5]; ALTA-1L first interim analysis, 95% CI: 0.33–0.74, p < 0.001", "value": 0.49}, {"measurement": "Early onset pulmonary events, patients", "setting": "[5]; ALTA-1L", "value": 3, "unit": "%"}, {"measurement": "Median PFS", "setting": "[5]; ALTA-1L", "value": "≥ 2", "unit": "years"}, {"measurement": "Median time to first brigatinib dose reduction", "setting": "[5]; ALTA-1L", "value": "~ 2 years"}, {"measurement": "2-year intracranial PFS rate", "setting": "[5]; ALTA-1L, patients with any baseline brain metastases", "value": 48, "unit": "%"}, {"measurement": "iORR", "setting": "[5]; second ALTA-1L interim analysis, patients with measurable baseline brain metastases", "value": 78, "unit": "%"}]}
